Ten compounds from ChEMBL document CHEMBL5465560, “Selectivity Literature for EUbOPEN Chemogenomic Library” (2024) can be followed below.

Experiment [1] deals with Mitogen-activated protein kinase 8 (Homo sapiens, UniProt P45983). The experiment in a line: Selectivity interaction (KinomeScan (DiscoverX)) EUB0000595a MAPK8. To be noted: at 10 µM.
The target in experiment [2] is Myosin light chain kinase, smooth muscle (Homo sapiens, UniProt Q15746). The experiment in a line: Selectivity interaction (KinomeScan (DiscoverX)) EUB0001619a MYLK. To be noted: at 1 µM.
Experiment [3] has as its target Serine/threonine-protein kinase 10 (Homo sapiens) (UniProt O94804). Nature of the experiment: Selectivity interaction (ActivX KiNativ screen (ex vivo kinase selectivity in human PBMCs)) EUB0001619a STK10. It is filed as cell-based. The conditions noted are these: PBMC, at 1 µM.
For experiment [4], the target named is T1, Mitogen-activated protein kinase 13 (Homo sapiens) (UniProt O15264).
T1 sequence (whole entry): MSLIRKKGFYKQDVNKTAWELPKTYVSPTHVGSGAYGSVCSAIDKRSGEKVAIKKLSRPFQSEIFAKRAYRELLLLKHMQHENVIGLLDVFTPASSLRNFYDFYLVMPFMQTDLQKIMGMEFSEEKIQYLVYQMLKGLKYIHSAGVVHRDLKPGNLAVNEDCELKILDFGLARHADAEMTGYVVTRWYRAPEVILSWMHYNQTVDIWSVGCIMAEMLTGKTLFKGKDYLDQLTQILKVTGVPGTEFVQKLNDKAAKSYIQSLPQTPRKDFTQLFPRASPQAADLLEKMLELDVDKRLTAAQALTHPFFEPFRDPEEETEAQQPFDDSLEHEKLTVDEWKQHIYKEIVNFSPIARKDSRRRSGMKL
Nature of the experiment: Selectivity interaction (KinomeScan (DiscoverX)) EUB0000666a MAPK13. To be noted: at 10 µM.

The target of experiment [5] is T2, Ephrin type-A receptor 1 (Homo sapiens) (UniProt P21709).
T2 sequence (whole entry): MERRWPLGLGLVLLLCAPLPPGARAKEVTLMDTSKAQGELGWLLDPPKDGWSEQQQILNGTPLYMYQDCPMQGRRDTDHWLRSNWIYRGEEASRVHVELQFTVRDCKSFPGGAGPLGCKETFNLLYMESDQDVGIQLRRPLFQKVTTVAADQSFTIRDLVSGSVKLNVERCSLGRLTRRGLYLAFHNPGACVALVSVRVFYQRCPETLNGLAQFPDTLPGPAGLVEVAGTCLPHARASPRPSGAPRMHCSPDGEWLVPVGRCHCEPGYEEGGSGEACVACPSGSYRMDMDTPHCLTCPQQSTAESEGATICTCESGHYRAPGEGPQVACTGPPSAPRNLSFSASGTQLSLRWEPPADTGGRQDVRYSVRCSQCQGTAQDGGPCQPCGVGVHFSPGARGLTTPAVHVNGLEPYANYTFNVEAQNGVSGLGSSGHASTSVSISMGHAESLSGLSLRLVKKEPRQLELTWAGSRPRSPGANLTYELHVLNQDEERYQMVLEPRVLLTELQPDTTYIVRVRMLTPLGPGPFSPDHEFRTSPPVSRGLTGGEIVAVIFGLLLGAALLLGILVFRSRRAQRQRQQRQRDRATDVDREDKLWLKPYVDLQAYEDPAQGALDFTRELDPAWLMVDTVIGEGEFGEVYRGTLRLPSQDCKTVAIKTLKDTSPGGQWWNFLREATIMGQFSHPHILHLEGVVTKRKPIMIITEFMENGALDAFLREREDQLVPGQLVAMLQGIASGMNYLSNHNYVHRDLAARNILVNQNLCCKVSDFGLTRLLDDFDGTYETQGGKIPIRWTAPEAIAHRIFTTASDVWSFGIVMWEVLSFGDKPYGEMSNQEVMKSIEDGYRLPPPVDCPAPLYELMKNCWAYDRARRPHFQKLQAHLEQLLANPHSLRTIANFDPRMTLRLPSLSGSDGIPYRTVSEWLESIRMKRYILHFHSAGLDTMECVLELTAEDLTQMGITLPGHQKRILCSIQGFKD
Nature of the experiment: Selectivity interaction (KinomeScan (DiscoverX)) EUB0000607a EPHA1. The conditions noted are these: at 10 µM.

The target of experiment [6] is MAP/microtubule affinity-regulating kinase 3 (Homo sapiens) (UniProt P27448). The conditions noted are these: at 10 µM.
Chain of MAP/microtubule affinity-regulating kinase 3 (Homo sapiens) (P27448 whole entry, looked up): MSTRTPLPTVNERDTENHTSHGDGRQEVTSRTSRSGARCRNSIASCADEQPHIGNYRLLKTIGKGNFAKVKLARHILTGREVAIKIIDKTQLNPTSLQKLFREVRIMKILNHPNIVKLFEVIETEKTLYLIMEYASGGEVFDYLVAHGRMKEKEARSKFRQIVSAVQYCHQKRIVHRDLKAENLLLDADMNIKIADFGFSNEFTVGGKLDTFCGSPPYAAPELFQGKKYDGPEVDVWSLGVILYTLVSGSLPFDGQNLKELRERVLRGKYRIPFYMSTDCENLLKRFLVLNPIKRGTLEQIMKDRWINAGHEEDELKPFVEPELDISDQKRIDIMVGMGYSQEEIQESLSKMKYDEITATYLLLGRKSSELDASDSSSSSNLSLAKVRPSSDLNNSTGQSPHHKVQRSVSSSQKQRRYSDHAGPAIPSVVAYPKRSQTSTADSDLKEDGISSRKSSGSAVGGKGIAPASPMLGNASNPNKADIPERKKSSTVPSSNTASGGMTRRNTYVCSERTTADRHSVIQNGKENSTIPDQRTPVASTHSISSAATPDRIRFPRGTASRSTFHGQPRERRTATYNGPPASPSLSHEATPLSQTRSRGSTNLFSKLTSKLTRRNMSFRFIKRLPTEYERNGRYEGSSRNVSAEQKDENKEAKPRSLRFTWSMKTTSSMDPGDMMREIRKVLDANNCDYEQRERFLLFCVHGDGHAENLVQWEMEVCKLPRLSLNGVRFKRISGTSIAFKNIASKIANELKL
The target of experiment [7] is Ribosomal protein S6 kinase alpha-1 (Homo sapiens, UniProt Q15418). Nature of the experiment: Selectivity interaction (ActivX KiNativ screen (kinase selectivity in THP-1 cell lysates)) EUB0000639a RPS6KA1. The class given is subcellular. To be noted: lysate, at 0.01 µM.
Chain of Ribosomal protein S6 kinase alpha-1 (Q15418 whole entry): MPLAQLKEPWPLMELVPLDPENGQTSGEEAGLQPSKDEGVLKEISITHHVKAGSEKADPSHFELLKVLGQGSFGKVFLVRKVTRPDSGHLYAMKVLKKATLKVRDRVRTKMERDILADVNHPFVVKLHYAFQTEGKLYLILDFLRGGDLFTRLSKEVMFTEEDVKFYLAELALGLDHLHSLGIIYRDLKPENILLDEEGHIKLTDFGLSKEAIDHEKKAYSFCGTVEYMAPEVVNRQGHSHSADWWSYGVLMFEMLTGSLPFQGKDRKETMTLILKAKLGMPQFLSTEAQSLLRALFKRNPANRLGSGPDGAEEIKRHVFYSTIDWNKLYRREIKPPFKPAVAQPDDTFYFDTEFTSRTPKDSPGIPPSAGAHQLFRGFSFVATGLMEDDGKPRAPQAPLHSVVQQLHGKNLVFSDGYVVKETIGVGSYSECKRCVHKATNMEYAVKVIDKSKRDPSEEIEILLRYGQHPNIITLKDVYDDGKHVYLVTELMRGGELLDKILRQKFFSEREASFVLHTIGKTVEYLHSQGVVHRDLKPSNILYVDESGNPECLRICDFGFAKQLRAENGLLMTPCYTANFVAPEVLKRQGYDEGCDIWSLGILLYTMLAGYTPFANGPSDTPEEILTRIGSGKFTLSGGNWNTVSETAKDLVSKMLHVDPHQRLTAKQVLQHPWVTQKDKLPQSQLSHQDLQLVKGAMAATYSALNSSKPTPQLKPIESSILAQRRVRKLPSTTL
Experiment [8] addresses T3, Dual specificity mitogen-activated protein kinase kinase 4 (Homo sapiens) (UniProt P45985).
T3 sequence (whole entry): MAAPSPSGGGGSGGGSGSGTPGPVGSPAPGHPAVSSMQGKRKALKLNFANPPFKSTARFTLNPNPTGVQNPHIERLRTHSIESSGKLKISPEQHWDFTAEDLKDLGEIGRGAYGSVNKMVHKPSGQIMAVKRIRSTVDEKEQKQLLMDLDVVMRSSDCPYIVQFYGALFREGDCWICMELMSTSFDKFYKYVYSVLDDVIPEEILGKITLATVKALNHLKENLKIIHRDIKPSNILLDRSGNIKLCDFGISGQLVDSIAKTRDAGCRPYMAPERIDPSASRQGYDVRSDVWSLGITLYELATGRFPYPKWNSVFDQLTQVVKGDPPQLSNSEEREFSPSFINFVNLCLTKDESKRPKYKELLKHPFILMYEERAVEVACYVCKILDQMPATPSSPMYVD
Nature of the experiment: Selectivity interaction (Ambit KINOMEscan and KiNATiv profiling in Jurkat cells) EUB0000090b MAP2K4. It is filed as cell-based. The conditions noted are these: at 1 µM.

The target in experiment [9] is Calcium/calmodulin-dependent protein kinase type 1 (Homo sapiens) (UniProt Q14012). Nature of the experiment: Selectivity interaction (Upstate Kinase Profiler service (Millipore)) EUB0000056c CAMK1. To be noted: at 1 µM.
Chain of Calcium/calmodulin-dependent protein kinase type 1 (Homo sapiens) (Q14012 whole entry, looked up): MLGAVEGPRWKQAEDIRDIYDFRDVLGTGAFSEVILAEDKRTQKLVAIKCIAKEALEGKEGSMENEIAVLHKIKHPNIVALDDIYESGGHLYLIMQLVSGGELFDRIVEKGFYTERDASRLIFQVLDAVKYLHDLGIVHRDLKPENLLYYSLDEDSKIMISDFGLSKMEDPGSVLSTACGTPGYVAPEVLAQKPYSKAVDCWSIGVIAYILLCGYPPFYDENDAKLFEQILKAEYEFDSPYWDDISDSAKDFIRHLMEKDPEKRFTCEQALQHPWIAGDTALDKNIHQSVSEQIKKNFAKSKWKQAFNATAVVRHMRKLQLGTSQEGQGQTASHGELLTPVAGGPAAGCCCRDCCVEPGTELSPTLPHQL
Experiment [10] concerns the target T4, Serine/threonine-protein kinase NLK (Homo sapiens) (UniProt Q9UBE8).
T4 sequence (whole entry): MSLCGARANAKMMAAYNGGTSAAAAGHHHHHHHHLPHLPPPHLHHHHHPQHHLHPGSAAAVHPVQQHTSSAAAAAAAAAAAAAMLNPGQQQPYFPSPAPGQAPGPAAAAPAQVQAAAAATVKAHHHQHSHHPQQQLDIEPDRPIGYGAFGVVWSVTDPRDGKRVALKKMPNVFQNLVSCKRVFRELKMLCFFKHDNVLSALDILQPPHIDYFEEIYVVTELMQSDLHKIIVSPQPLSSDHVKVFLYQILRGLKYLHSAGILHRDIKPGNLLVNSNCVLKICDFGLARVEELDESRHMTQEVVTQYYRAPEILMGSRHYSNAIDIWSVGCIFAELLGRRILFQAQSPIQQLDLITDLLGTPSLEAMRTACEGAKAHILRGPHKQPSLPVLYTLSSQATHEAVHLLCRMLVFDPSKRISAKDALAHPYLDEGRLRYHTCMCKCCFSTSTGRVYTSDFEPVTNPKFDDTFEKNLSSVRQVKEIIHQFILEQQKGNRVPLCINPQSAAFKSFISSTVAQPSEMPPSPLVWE
Nature of the experiment: Selectivity interaction (KinomeScan (DiscoverX)) EUB0000655a NLK. To be noted: at 10 µM.

Experiment [11] deals with Death-associated protein kinase 3 (Homo sapiens) (UniProt O43293). The experiment in a line: Selectivity interaction (KinomeScan (DiscoverX)) EUB0001079a DAPK3. The conditions noted are these: at 1 µM.
Chain of Death-associated protein kinase 3 (Homo sapiens) (O43293 whole entry, looked up): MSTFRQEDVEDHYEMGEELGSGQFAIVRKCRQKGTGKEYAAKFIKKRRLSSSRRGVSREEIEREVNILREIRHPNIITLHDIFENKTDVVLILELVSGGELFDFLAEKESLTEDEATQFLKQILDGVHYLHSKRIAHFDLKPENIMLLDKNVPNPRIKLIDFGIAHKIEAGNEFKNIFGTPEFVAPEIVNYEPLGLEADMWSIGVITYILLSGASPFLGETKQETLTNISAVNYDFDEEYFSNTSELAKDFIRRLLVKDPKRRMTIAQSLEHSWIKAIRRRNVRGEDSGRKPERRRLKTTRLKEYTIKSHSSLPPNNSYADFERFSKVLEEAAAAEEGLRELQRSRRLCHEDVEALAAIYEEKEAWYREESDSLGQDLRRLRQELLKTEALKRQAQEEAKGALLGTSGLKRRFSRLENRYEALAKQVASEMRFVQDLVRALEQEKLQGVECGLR

Chain of Serine/threonine-protein kinase 10 (Homo sapiens) (O94804 whole entry, looked up): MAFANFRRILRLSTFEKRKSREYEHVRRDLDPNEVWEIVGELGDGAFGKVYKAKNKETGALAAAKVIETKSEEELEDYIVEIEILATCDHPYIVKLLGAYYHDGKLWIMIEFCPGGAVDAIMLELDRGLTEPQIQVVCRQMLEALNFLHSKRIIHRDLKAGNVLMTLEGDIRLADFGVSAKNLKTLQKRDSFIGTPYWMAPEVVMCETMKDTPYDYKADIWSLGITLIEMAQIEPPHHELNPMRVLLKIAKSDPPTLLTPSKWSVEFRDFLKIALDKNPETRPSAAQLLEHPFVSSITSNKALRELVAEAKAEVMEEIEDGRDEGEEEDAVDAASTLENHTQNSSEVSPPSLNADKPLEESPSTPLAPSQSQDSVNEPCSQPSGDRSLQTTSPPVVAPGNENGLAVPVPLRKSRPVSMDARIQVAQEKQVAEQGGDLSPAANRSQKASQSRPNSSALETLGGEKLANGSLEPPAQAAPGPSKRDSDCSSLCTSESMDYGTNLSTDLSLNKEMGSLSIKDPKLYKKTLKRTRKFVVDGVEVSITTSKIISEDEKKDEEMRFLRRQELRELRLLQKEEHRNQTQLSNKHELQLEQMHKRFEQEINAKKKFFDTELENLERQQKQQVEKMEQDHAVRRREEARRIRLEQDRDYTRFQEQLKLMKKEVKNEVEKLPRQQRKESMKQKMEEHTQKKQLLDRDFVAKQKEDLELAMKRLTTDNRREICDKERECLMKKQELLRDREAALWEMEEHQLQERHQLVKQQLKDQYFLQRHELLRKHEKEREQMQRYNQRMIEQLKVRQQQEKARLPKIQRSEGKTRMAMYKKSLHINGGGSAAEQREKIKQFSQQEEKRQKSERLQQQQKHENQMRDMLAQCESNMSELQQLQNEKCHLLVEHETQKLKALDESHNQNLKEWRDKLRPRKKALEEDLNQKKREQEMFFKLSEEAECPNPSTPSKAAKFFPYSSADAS
Chain of Mitogen-activated protein kinase 8 (P45983 whole entry): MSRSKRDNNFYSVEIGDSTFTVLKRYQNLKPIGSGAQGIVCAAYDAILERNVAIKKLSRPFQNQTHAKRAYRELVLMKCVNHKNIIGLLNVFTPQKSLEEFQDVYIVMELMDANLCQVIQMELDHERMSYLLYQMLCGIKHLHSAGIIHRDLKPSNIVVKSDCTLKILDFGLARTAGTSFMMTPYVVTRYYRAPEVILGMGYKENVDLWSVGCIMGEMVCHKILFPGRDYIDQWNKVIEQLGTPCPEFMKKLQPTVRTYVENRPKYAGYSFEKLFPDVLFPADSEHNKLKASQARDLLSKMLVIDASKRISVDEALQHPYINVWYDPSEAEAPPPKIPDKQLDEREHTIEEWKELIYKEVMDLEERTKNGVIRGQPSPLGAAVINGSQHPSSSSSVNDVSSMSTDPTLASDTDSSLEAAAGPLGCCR

Compound `COCC(=O)NC/C=C/c1ccc2ncnc(Nc3ccc(Oc4ccc(C)nc4)c(C)c3)c2c1` [CP-724714] registered a % of control in experiment [1] of 66%. `N#Cc1cccc(-c2c[nH]c3ncnc(N4CCOCC4)c23)c1` returned a % of control in experiment [2] of 100%. The compound also returned a % of inhibition in [3] of 79%. Compound `O=C(NOC[C@H](O)CO)c1ccc(F)c(F)c1Nc1ccc(I)cc1F` returned a % of control in experiment [4] of 6.1%. In experiment [5], `CNC(=O)Nc1ccc(-c2nc(N3CC4CCC(C3)O4)c3cnn(C4CCC5(CC4)OCCO5)c3n2)cc1` showed a % of control of 81%. For `Cc1cc([C@@H](C)Nc2ccccc2C(=O)O)c2nc(N3CCOCC3)cc(=O)n2c1` [AZD-6482], the % of control in experiment [6] stood at 89%. On to `CC[C@@H]1[C@H](F)C(=O)N[C@@H]1COc1nccc2cc(C(N)=O)c(OC)cc12` [ZIMLOVISERTIB], for which the % of inhibition in [7] is 25.4%. As to `CN(C)C/C=C/C(=O)Nc1ccc(C(=O)N2CCCC(Nc3ncc(Cl)c(-c4c[nH]c5ccccc45)n3)C2)cc1` (stereo unspecified), the % of control in experiment [8] is 70%. `Cc1ccc(-c2ccc3c(ccc4sc5c(c43)NC[C@@H](C)NC5=O)n2)cn1`: the % of inhibition in [9] came to 2%. In turn, `CN(C)CCOc1ccc(-c2nc(-c3ccncc3)c(-c3ccc4c(c3)CC/C4=N\O)[nH]2)cc1` gave a % of control in experiment [10] of 90%. `Nc1cnc(N2CCc3cc(S(=O)(=O)Nc4c(F)cc(Cl)cc4F)cc(N4CCCC4=O)c32)nc1` [TP-020n]: in experiment [11], the % of control is 83%.
